Test results from ChEMBL document CHEMBL2074424, “Breast cancer resistance protein directly confers SN-38 resistance of lung cancer cells” (Biochem Biophys Res Commun, 2001).

Molecular target: T1, Broad substrate specificity ATP-binding cassette transporter ABCG2 (Homo sapiens, UniProt Q9UNQ0)
T1 sequence (Q9UNQ0 whole entry): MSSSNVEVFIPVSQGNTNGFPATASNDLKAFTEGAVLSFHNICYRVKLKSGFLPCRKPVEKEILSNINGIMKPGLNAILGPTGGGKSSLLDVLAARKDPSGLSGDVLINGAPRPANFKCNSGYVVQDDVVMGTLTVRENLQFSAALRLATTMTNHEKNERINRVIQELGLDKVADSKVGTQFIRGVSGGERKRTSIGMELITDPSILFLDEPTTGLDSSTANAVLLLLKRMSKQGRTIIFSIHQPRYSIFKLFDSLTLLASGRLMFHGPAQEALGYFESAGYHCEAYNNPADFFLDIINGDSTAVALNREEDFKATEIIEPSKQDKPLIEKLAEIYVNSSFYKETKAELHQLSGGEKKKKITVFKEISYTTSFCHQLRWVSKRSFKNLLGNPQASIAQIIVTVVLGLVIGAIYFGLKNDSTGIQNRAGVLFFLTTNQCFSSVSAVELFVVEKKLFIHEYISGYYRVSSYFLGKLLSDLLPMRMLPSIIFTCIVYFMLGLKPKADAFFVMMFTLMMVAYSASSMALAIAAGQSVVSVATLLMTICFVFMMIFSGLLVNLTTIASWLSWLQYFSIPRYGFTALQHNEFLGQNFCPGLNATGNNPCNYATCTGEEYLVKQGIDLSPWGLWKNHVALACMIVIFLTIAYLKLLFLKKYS
Assay: TP_TRANSPORTER: inhibition of accumulation by antisense of BCRP in PC-6/SN2-5,PC-6/SN2-5H cells
Type: functional, cell-based

CCc1c2c(nc3ccc(O)cc13)-c1cc3c(c(=O)n1C2)COC(=O)[C@]3(O)CC [7-ETHYL-10-HYDROXYCAMPTOTHECIN] was tested, and the Activity was “substrate [+]”.
